Test results taken from PubChem BioAssay (NCI).
“And” between values parts separate entries of the source, which are not always exact repeats. Equal values may be shown once.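 Assay format: 96-well plates, 48-hour exposure. At the GI50, growth is halved. At the TGI there is no net growth.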

What was measured:
Assay in all cases: NCI tumour cell line growth inhibition, 48 h
ACHN renal = system: ACHN renal
T-47D breast = system: T-47D breast
MDA-MB-435 = system: MDA-MB-435
A498 renal = system: A498 renal
IGROV1 ovarian = system: IGROV1 ovarian
DMS 273 small cell lung = system: DMS 273 small cell lung
SNB-19 CNS = system: SNB-19 CNS
LOX IMVI melanoma = system: LOX IMVI melanoma
MALME-3M melanoma = system: MALME-3M melanoma
SK-MEL-2 melanoma = system: SK-MEL-2 melanoma
TK-10 renal = system: TK-10 renal
HCT-116 colon = system: HCT-116 colon
M14 melanoma = system: M14 melanoma
HOP-18 NSCLC = system: HOP-18 NSCLC
KM20L2 colon = system: KM20L2 colon
CCRF-CEM leukemia = system: CCRF-CEM leukemia
KM12 colon = system: KM12 colon
SK-MEL-28 melanoma = system: SK-MEL-28 melanoma

Cc1c2cc[n+](C)cc2c(C)c2c1[nH]c1ccccc12 gave a TGI (ACHN renal) greater than 100 µM, a TGI (T-47D breast) of 0.832 µM and a TGI (MDA-MB-435) greater than 100 µM. The TGI (A498 renal) was 68.7 µM and 53.5 µM, the TGI (IGROV1 ovarian) was 78.1 µM and 75.3 µM and the TGI (DMS 273 small cell lung) was 12.3 µM and 14.2 µM. The TGI (SNB-19 CNS) was 1.09 µM and 1.3 µM, the TGI (LOX IMVI melanoma) was 48.3 µM and 27.4 µM and the TGI (MALME-3M melanoma) was 3.24 µM and 4.03 µM. The TGI (SK-MEL-2 melanoma) was 2.85 µM and 3.5 µM, the TGI (TK-10 renal) was greater than 100 µM and the TGI (HCT-116 colon) was 35.2 µM and 33.6 µM. The TGI (M14 melanoma) was greater than 100 µM, the GI50 (HOP-18 NSCLC) was 5.47 µM and the TGI (HOP-18 NSCLC) was 21.3 µM and 32 µM. For the same compound, the GI50 (KM20L2 colon) was 4.95 µM and 2.34 µM, the TGI (KM20L2 colon) was 33.4 µM and 19.9 µM and the TGI (CCRF-CEM leukemia) was 41.9 µM and 35.3 µM. For the same compound, the TGI (KM12 colon) was 12.1 µM and the TGI (SK-MEL-28 melanoma) was 4.83 µM and 7.1 µM.
